According to patent publication US6399568B1, “Cyclic tetrapeptide derivatives and medicinal use thereof” (Japan Energy Corporation, priority 1997, dated 2002):
Non-standard residues stand in square brackets, D forms with d. Residues, ends and D or L forms follow the SMILES beside them. *: point of attachment. Asu = N[C@@H](CCCCCC(=O)O)C(=O)O; NHOH = ON*

Experiments:
Assay in all cases: Cell proliferation inhibition (72 hours)
Assay type in all cases: cell-based, mouse
leukemia L1210 cell line = settings: read-out: 50% proliferation inhibiting concentration L1210 (nM) mean
Description: (§1) In order to verify the action of the cyclic tetrapeptide derivative according to the present invention in inhibiting cell proliferation in cancerized cells, the action on the proliferation of the aforementioned B16/BL6 cells was investigated. The evaluation of cell proliferation rates was done utilizing a commercially available measuring kit, specifically, from Promega under the trade name CellTiter 96 Aqueous Non-Radioactive Proliferation Assay Kit. In the measuring kit, the amount of products through reduction of a reagent tetrazolium compound (3-(4,5-dimethylthiazol-2-yl)-5-(3-carboxymethoxyphenyl)-2-(4-sulfophenyl)-2H-tetrazolium, inner salt; MTS) by viable animal cells is determined by detecting spectrophotometrically the color generated from the products. Since the amount of products is proportional to the amount of viable cells, this kit is utilized to evaluate the amount of viable cells.
(§2) According to the procedure of Test Example 1, B16/BL6 cells are inoculated in a 96 well microplate and cultured for 24 hours. Then, 10 μl of a solution of the source solution of a compound to be tested which has been diluted to a predetermined amount per well is added. Thereafter, culture is continued for additional 48 hours and 20 μl of a reagent solution in the aforementioned CellTiter 96 Aqueous Non-Radioactive Proliferation Assay Kit is then added. After incubation is continued at 37° C. for 1 hour, the amount of color generation is measured as an absorbance at 490 n musing a microplate reader.
(§3) The amount of cell proliferation of a group to which a compound to be tested is added is expressed in a relative value as compared to the standard cell proliferation (100%) in a control group to which no compound to be tested is added. For each compound tested, the amounts of cell proliferation were measured at different concentrations of addition and the dependence of the quantitative cell proliferation on the concentration of addition was investigated. From the results, a concentration of addition at which the amount of cell proliferation was inhibited by 50% relative to the amount of cell proliferation in the control group without addition was determined.
(§4) The test method was in accordance with the above-mentioned procedure, except that the period of incubation after the addition of a compound was 72 hours.
(§5) As illustrative examples, results are shown for an evaluation using mouse malignant melanoma B16/BL6 and B16 cell lines; leukemia L1210 cell line, colon cancer Colon26 cell line, and liver cancer MH134 cell line as cancer cells. For the cell proliferation inhibiting action of each compound tested for these cancer cells, 50% proliferation inhibiting concentrations are shown in Table 4.

[1] = system: liver cancer MH134 cell line; settings: read-out: 50% proliferation inhibiting concentration MH134 (nM) mean
Description: as §1, §2, §3, §4, §5

[2] = system: colon cancer Colon26 cell line; settings: read-out: 50% proliferation inhibiting concentration Colon 26 (nM) mean
Description: as §1, §2, §3, §4, §5

`CC[C@H](C)[C@@H]1NC(=O)[C@@H](Cc2ccc(OC)cc2)NC(=O)[C@H](CCCCCC(=O)NO)NC(=O)[C@H]2CCCN2C1=O` [HDA-31, cyclo(-L-Asu(NHOH)-D-Tyr(Me)-L-Ile-D-Pro-)] (cyclo([Asu](NHOH)[dY](Me)I[dP])) gave an IC50 (leukemia L1210 cell line) of 18.8 nM, an IC50 [1] of 50.7 nM and an IC50 [2] of 33 nM.
